Literature values, collected in patent US5876715A, “Antibodies that bind novel carbohydrate ligands (myelorollins) that cause E-selectin dependent cell rolling, and uses thereof” (The Biomembrane Institute, priority 1996, dated 1999).

Legend:
[1] = test system: E-selectin expressing CHO cells; conditions: shear stress of 0.78 dyne/cm^2; J. Immunol. 154:5356-5366 (1995); cited from earlier work
[2] = rat, IgG immune complex lung injury; Mulligan et al. 1993; cited from earlier work

IV^3 NeuAcIII^3 FucnLc4 Cer [SLe^x]
tethering of E-selectin expressing CHO cells [1]: tethered | effect against inflammatory vascular injury [2]: provides protective effects against inflammatory vascular injury
